Assay results from PMC12116762, “Topobexin targets the Topoisomerase II ATPase domain for beta isoform-selective inhibition and anthracycline cardioprotection” (Nature Communications, 2025).
Several values for one entry are separate records, joined by “and”; a condition that tells them apart may be missing. Equal values may be shown once.

Key:
[1] = Plasma pharmacokinetics in rabbits (LC-MS/MS); type: in vivo, rabbit
Experimental: Six rabbits were used to determine the plasma pharmacokinetics of topobexin (9). The compound was used as a dihydrochloride and was dissolved right before administration in sterile saline (10 mg of free base/ml); pH was optimized using NaOH and the solution was filtered through an antimicrobial filter (0.22 µm porosity, Carl Roth GmbH + Co. KG, Germany). The drug was administered i.v. using marginal ear vein at 10 mg/kg (counted as a free base) in a 20 min infusion. The dose, route of administration, and timing of infusion were determined based on preliminary pharmacokinetic experiments. Blood for pharmacokinetic analysis was collected from the central artery in the contralateral ear before drug administration (blank) and in preselected time intervals after drug administration (5 min to 10 h). Blood was collected in BD Vacutainer tubes (BD Biosciences, Plymouth, UK) containing lithium heparin. All samples were immediately centrifuged (5 min, 3000 × g), plasma was harvested and frozen immediately in liquid nitrogen and the samples were stored at -80 °C until analysis.
The concentration of topobexin (9) was determined in plasma samples using an analytical method developed and validated for this purpose. Briefly, rabbit plasma (50 μl) was spiked with internal standard (compound 14), precipitated with ice-cold acetonitrile (200 μl), vortexed (30 s), and centrifuged (10 min, 9520 × g, 4 °C). The resulting supernatant was filtered through a 0.45 μm porosity filter (Milex – Hv, Merck Milipore, Darmstadt, Germany) and analyzed using UHPLC-MS. Agilent 1290 Infinity II LC with Triple Quad LC/MS (6400 series), a Jet Stream Electrospray and Mass Hunter software (Agilent, Santa Clara, CA, USA) were used for the analyzes and data treatment, respectively. Chromatographic separation was achieved on the Zorbax Eclipse Plus C18 column (50 × 2.1 mm, 1.8 μm, […], Dublin, Ireland). The mobile phase composed of part A (0.0025% formic acid) and part B (acetonitrile) was mixed in the following gradient: 0–1 min (10% B), 1–3 (10–60% B), 3–3.5 min (60% B), 3.51–5 min (80% B), 5.01–6 min (10% B). The flow rate of mobile phase was 0.3 mL/min and 2 μL of the sample were injected onto the column. The linearity of the method was verified within the concentration range of 1 to 1000 nM topobexin (9) in rabbit plasma.

YFP-TOP2B = biological target: T1, YFP-TOP2B (Homo sapiens, UniProt Q02880); assay: FRAP analysis, YFP-TOP2B in HEK293F cells; type: cell-based; conditions: 0.25 and 1 μM
T1 construct: Using recombinant full-length human TOP2A and TOP2B enzymes; expressed in transfected cells; host or cells: HEK293F
T1 sequence (Q02880 1-1621 isoform Q02880-2): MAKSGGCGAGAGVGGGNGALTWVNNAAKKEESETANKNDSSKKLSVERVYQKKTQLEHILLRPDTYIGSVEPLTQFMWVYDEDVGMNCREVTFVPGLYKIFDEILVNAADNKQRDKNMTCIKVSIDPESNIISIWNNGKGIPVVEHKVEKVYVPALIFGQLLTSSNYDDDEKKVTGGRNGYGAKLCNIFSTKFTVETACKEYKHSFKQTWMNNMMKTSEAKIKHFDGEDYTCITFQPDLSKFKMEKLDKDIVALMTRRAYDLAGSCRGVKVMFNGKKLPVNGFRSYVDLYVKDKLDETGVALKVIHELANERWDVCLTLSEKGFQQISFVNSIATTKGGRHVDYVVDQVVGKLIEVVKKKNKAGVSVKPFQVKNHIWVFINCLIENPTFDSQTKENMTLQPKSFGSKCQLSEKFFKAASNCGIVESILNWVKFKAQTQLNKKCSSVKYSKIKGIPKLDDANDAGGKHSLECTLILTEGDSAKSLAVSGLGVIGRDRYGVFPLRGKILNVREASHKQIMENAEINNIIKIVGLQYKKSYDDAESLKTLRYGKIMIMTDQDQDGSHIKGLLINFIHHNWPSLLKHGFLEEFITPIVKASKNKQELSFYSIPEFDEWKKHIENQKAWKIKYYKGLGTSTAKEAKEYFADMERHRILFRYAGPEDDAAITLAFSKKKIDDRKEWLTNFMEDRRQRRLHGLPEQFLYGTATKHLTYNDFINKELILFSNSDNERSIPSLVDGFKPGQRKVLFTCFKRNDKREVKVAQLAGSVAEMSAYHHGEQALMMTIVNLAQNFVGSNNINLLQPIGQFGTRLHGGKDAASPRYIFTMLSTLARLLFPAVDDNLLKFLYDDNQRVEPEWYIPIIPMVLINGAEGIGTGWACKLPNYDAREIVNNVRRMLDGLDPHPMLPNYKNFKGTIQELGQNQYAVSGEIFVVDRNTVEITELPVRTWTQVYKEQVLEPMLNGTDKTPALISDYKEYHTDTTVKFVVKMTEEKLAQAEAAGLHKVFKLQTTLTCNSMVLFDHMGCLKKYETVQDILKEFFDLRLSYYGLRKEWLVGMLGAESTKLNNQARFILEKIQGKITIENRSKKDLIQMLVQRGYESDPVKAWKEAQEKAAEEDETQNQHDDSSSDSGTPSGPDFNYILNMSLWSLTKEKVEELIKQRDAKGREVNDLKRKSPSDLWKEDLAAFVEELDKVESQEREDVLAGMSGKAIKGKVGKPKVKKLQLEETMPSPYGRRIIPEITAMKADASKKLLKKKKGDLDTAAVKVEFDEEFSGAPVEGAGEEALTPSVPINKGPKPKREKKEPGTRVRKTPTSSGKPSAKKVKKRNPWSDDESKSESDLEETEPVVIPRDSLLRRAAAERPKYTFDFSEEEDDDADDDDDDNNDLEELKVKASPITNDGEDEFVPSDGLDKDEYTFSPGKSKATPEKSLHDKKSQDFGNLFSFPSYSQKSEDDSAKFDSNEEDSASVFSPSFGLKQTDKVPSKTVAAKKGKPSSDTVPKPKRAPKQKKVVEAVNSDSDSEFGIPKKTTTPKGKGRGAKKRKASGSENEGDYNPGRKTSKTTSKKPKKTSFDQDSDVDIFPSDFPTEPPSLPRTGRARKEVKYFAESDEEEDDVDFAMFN
Experimental: HEK293F cells were transfected with DNA plasmids encoding yellow-fluorescent protein (YFP)-TOP2A or YFP-TOP2B (the same DNA constructs for mammalian protein expression and purification) using Lipofectamine 2000 (Thermo Fisher Scientific). Cells were cultured for 24 h post transfection and YFP signals were confirmed prior to FRAP experiments. Transfected cells were plated on glass-bottomed culture dishes (Matsunami) and rested overnight. The next day, each dish was pre-incubated with the indicated inhibitor treatment or DMSO control for 15 min prior to FRAP experiment. Each set of experiments was repeated on at least two different days using newly transfected cells each time. Live-cell imaging was done using a LSM 980 microscope (Carl Zeiss Microscopy, LLC). YFP signal was excited at 508 nm at 2% laser power and detected through a 516–604 nm range. A small area within the nucleus (purple box) is manually selected for fluorescence bleaching at 100% laser power for 50 iterations. Inhibition of TOP2 by obex inhibitors was detected by impairment in fluorescence recovery at 15 s post bleaching, as a lack of inhibition allows for TOP2 diffusion throughout the nucleus.

[2] = biological target: T2, TOP2B-DNA covalent complex (Homo sapiens, UniProt Q02880); assay: RADAR assay, etoposide-induced TOP2B-DNA covalent complex in HEK293F cells; type: cell-based; conditions: for TOP2B spot intensity: independent replicates
T2 construct: endogenous in cells; host or cells: HEK293F
T2 sequence (Q02880 2-1626 limits assumed, one chain of several): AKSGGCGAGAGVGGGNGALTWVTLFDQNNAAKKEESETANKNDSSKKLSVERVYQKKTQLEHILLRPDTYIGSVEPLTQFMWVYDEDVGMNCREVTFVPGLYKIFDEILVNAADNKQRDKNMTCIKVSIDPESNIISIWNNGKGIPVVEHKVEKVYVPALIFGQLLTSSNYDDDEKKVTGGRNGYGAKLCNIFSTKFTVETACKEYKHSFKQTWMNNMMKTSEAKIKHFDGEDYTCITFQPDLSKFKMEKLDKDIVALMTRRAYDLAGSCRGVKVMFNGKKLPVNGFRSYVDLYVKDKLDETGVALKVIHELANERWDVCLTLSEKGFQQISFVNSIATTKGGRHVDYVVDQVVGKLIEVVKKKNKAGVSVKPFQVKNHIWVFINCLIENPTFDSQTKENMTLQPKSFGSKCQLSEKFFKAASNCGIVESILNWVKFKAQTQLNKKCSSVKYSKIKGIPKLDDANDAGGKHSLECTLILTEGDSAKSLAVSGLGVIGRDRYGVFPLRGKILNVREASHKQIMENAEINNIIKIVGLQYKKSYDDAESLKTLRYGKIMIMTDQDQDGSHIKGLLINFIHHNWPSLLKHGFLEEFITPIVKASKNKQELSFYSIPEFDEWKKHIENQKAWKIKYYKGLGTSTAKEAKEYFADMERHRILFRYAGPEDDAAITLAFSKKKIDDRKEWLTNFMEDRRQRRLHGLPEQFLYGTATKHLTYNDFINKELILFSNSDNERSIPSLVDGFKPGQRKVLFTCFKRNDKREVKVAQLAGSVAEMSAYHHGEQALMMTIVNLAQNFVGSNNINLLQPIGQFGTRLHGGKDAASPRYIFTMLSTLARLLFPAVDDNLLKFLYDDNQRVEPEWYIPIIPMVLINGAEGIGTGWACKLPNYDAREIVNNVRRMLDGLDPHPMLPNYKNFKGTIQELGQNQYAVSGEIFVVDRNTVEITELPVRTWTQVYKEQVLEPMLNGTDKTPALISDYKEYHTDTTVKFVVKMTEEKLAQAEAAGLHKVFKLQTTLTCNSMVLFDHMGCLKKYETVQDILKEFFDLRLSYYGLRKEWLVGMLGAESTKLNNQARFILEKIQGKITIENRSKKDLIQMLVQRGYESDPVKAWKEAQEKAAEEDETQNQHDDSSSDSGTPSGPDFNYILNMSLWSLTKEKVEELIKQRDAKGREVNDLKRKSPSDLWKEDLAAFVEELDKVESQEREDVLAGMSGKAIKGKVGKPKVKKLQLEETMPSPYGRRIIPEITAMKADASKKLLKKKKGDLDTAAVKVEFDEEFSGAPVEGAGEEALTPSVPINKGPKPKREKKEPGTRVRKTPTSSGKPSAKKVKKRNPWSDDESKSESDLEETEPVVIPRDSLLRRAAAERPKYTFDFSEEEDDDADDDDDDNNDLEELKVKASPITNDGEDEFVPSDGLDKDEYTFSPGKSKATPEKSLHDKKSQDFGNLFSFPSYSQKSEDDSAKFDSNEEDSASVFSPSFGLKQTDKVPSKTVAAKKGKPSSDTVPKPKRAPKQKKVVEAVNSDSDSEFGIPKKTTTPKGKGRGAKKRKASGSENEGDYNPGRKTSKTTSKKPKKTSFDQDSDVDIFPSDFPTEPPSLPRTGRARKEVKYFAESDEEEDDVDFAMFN
Experimental: HEK293F cells were plated at 3 × 10^5 cells per well and grown overnight. […] Upon removal of media, cells in each well were immediately lysed with 750 µL DNAzol (Molecular Research Center, Inc.) and the DNA was precipitated by addition of 375 µL of 100% ethanol. This step was then repeated to eliminate protein aggregates. Precipitate from each sample was pelleted via centrifugation at 4 °C and max speed for 5 min. The pellets were washed twice with buffer containing 20 mM Tris pH 7.5, 1 mM EDTA pH 8.0, 50 mM NaCl, 50% EtOH, and at the end of each wash, centrifugation at 4000 × g for 2 min was repeated to isolate the DNA pellets. The pellets were washed in 75% EtOH and then collected by centrifugation at 4 °C and max speed for 5 min. The supernatant was removed via pipetting, and the remaining pellets were air dried for 5 min before 50 µL 8 mM NaOH and 0.1% Tween-20 was added to each pellet. Once no visible precipitate remained, each mixture was supplemented with 5 µL of Benzonase buffer containing 500 mM Tris pH 8.0, 10 mM MgCl2, 1/1000 Roche complete protease inhibitor cocktail (Millipore Sigma) and 40 units Benzonase (Millipore Sigma) followed by 30 to 60 min incubation at 37 °C until the pellets were fully dissolved. The DNA content from each sample was quantified on a nanodrop, and 10 µg of DNA was diluted to a final volume of 200 µL in 8 mM NaOH and 0.1% Tween. The samples were applied over the Whatman Minifold I dot blot apparatus (Cytiva) and collected on a PVDF membrane (Thermo Fisher Scientific). The membrane was washed three times with 8 mM NaOH and 0.1% Tween-20 solution prior to removal and blocking with the same wash solution containing 1 mg/mL BSA. Western blotting was carried out on an iBind (Thermo Fisher Scientific) and TOP2 proteins were detected using isoform-specific antibody against full length TOP2A (1:250 dilution; HT2A21, Inspiralis) and TOP2B (1:500 dilution; 611493, BD Biosciences) and visualized with anti-rabbit (1:1000 dilution; 926-68071, LI-COR Bio) and anti-mouse (1:1000 dilution; 926-32210, LI-COR Bio) secondary antibodies in iBind running buffer. The blots were imaged on a LI-COR Odyssey Fc and analysed using ImageStudio. Each presented data point was obtained from distinct sample.

[3] = iv, rabbit plasma, 10 mg/kg, 20 min i.v. infusion

## CCCc1cc(=O)oc2c(C(=O)N3CCCc4ccccc43)c(OCCN3CCN(C)CC3)ccc12 [topobexin (9)]
[1]; 10 min, individual subjects
  Plasma concentration: 9.134 µM and 17.429 µM and 15.678 µM and 15.114 µM and 12.648 µM
[1]; 20 min, individual subjects
  Plasma concentration: 11.689 µM and 11.373 µM and 12.322 µM and 16.573 µM and 12.398 µM
[1]; 40 min, individual subjects
  Plasma concentration: 4.374 µM and 4.139 µM and 3.247 µM and 3.779 µM and 3.693 µM
[1]; 60 min, individual subjects
  Plasma concentration: 1.755 µM and 3.643 µM and 3.122 µM and 2.610 µM and 3.293 µM and 2.847 µM
[1]; 120 min, individual subjects
  Plasma concentration: 1.524 µM and 1.569 µM and 1.234 µM and 1.184 µM and 1.188 µM
[1]; 240 min, individual subjects
  Plasma concentration: 0.456 µM and 0.440 µM and 0.629 µM and 0.503 µM and 0.425 µM
[1]; 360 min, individual subjects
  Plasma concentration: 0.161 µM and 0.144 µM and 0.140 µM and 0.225 µM and 0.134 µM
[1]; 480 min, individual subjects
  Plasma concentration: 0.110 µM and 0.051 µM and 0.053 µM and 0.103 µM and 0.049 µM
[1]; 600 min, individual subjects
  Plasma concentration: 0.019 μM (2×) and 0.026 μM (2×) and 0.018 μM
[1]; [3]
  Cmax: 13.5 ± 3.2 µM
  Tmax: 10 min
[1]; plasma
  concentrations present in rabbits during daunorubicin administration: ≤ 3 µM
[1]; rabbit, 10 mg/kg 20 min i.v. infusion, 5 min, individual subjects, 10 mg/kg
  Plasma concentration: 7.668 µM and 14.456 µM and 10.833 µM and 11.650 µM and 11.714 µM
[1]; rabbit, 10 mg/kg, 20 min i.v. infusion
  time with plasma concentration ≥ 1 μM: 2.5 h
[1]; rabbit, plasma, intravenous, 10 mg/kg, 10 min, individual subjects
  concentration at 10 min: 10.8 µM
[1]; rabbit, plasma, intravenous, 10 mg/kg, 20 min, individual subjects
  concentration at 20 min: 10.5 µM
[1]; rabbit, plasma, intravenous, 10 mg/kg, 40 min, individual subjects
  concentration at 40 min: 3.47 µM
[1]; rabbit, plasma, intravenous, 10 mg/kg, 120 min, individual subjects
  concentration at 120 min: 1.32 µM
[1]; rabbit, plasma, intravenous, 10 mg/kg, 240 min, individual subjects
  concentration at 240 min: 0.429 µM
[1]; rabbit, plasma, intravenous, 10 mg/kg, 360 min, individual subjects
  concentration at 360 min: 0.155 µM
[1]; rabbit, plasma, intravenous, 10 mg/kg, 600 min, individual subjects
  concentration at 600 min: 0.025 µM
[1]; rabbit, plasma, iv, 10 mg/kg, 10 mg/kg 20 min i.v. infusion, 5 min, individual subjects
  concentration at 5 min: 11.1 µM
YFP-TOP2B
  recovery of fluorescence for TOP2B in photobleached area: impaired
[2]; Cmpd 9 0.1 μM + etoposide 5 μM
  TOP2B spot intensity: 104.7 and 108 and 35.48 and 44.18 and 86.39
[2]; Cmpd 9 1 μM + etoposide 5 μM
  TOP2B spot intensity: 30.03 and 46.96 and 8.418 and 33.86 and 32.47
[2]; Cmpd 9 10 μM + etoposide 5 μM
  TOP2B spot intensity: 9.497 and 0.7143 and 3.351 and 13.57 and 7.34
[2]; Cmpd 9 10 μM, etoposide 0, background subtracted
  TOP2B spot intensity: 0.7839 and 1.705 and 2.435 and 8.291 and 6.459
[2]; etoposide-induced, HEK293F
  concentration significantly reducing TOP2B-DNA CC: 1 µM
